Data published in the supplement of paper PMC10627819.

Key:
S. aureus Newman [1] = test: fitness (endpoint OD595 vs no drug) (fraction); higher = more growth
Method in brief: (§1)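 Bacterial fitness was scored as optical density at the stationary-phase transition relative to the robust mean of no-drug control wells. Scores are capped at 1. The growth data were OD595 readings every 30 min for 14 h at 37 °C, background-subtracted against the first reading, from 384-well plates inoculated at OD595 0.01 in TSB, LB Lennox or CY.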

S. pneumoniae D39V [2] = test: as above
Method in brief: as §1

B. subtilis 168 [3] = test: as above
Method in brief: as §1

S. aureus DSM 20231 = test: Bliss interaction score (quartile over a dose matrix) (fitness difference); higher = more antagonism (negative = synergy)
Method in brief: (§2)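 Growth in each well was taken as OD595 at entry into stationary phase. Dividing by the plate's robust no-drug mean and capping at 1 gave fitness, and single-drug fitness was inferred from the combination data. The Bliss score, observed minus product-expected fitness, is summarised by quartiles over technical, biological and donor/recipient replicates.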

S. aureus Newman [4] = test: as above
Method in brief: as §2

S. pneumoniae D39V [5] = test: as above
Method in brief: as §2

B. subtilis 168 [6] = test: as above
Method in brief: as §2
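Wherever Bliss interaction score (quartile over a dose matrix) is given: first quartile when negative (synergy) and third quartile when positive (antagonism).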

CO/N=C(\C(=O)N[C@@H]1C(=O)N2C(C(=O)O)=C(COC(C)=O)CS[C@H]12)c1csc(N)n1 [Cefotaxime] + CC1=C(C(=O)O)N2C(=O)[C@@H](NC(=O)[C@H](N)c3ccccc3)[C@H]2SC1 [Cephalexin]
fitness, one replicate
Conditions | partner 0.125 µg/mL | partner 0.25 µg/mL | partner 0.5 µg/mL | partner 1 µg/mL
B. subtilis 168 [3], first compound 0.00775 µg/mL | – | 0.868 | 0.903 | 0.851
B. subtilis 168 [3], first compound 0.0155 µg/mL | – | 0.729 | 0.728 | 0.748
B. subtilis 168 [3], first compound 0.031 µg/mL | – | 0.62 | 0.631 | 0.615
S. aureus Newman [1], first compound 0.039 µg/mL | – | 0.904 | 0.952 | ≥ 1
S. aureus Newman [1], first compound 0.312 µg/mL | – | 0.402 | 0.38 | 0.371
S. pneumoniae D39V [2], first compound 0.0018 µg/mL | ≥ 1 | 0.959 | 1 | –
S. pneumoniae D39V [2], first compound 0.0035 µg/mL | 0.953 | 0.967 | 0.977 | –
S. pneumoniae D39V [2], first compound 0.007 µg/mL | 0.777 | 0.875 | 0.724 | –

Conditions | fitness
B. subtilis 168 [3], first compound 0.5 µg/mL, partner 0.125 µg/mL | 0.235
B. subtilis 168 [3], first compound 0.5 µg/mL, partner 0.25 µg/mL | 0.221
B. subtilis 168 [3], first compound 0.5 µg/mL, partner 0.5 µg/mL | 0.248
B. subtilis 168 [3], first compound 1 µg/mL, partner 0.125 µg/mL | 0.152
B. subtilis 168 [3], first compound 1 µg/mL, partner 0.25 µg/mL | 0.123
B. subtilis 168 [3], first compound 1 µg/mL, partner 0.5 µg/mL | 0.148
B. subtilis 168 [3], first compound 2 µg/mL, partner 0.125 µg/mL | 0.124
B. subtilis 168 [3], first compound 2 µg/mL, partner 0.25 µg/mL | 0.125
B. subtilis 168 [3], first compound 2 µg/mL, partner 0.5 µg/mL | 0.0819
S. aureus Newman [1], first compound 0.078 µg/mL, partner 0.25 µg/mL | 0.751
S. aureus Newman [1], first compound 0.078 µg/mL, partner 0.5 µg/mL | 0.797
S. aureus Newman [1], first compound 0.078 µg/mL, partner 1 µg/mL | 0.817
S. aureus Newman [1], first compound 0.156 µg/mL, partner 0.25 µg/mL | 0.636
S. aureus Newman [1], first compound 0.156 µg/mL, partner 0.5 µg/mL | 0.631
S. aureus Newman [1], first compound 0.156 µg/mL, partner 1 µg/mL | 0.713
S. aureus Newman [1], first compound 0.625 µg/mL, partner 0.5 µg/mL | 0.248
S. aureus Newman [1], first compound 1.25 µg/mL, partner 0.25 µg/mL | 0.159
S. aureus Newman [1], first compound 1.25 µg/mL, partner 0.5 µg/mL | 0.111
S. aureus Newman [1], first compound 1.25 µg/mL, partner 1 µg/mL | 0.0956
S. aureus Newman [1], first compound 2.5 µg/mL, partner 0.25 µg/mL | 0.0395
S. aureus Newman [1], first compound 2.5 µg/mL, partner 0.5 µg/mL | 0.0255
S. aureus Newman [1], first compound 2.5 µg/mL, partner 1 µg/mL | 0.0566
S. pneumoniae D39V [2], first compound 0.0018 µg/mL, partner 1 µg/mL | 0.815
S. pneumoniae D39V [2], first compound 0.0018 µg/mL, partner 2 µg/mL | 0.242
S. pneumoniae D39V [2], first compound 0.0018 µg/mL, partner 4 µg/mL | 0.0372
S. pneumoniae D39V [2], first compound 0.0035 µg/mL, partner 1 µg/mL | 0.679
S. pneumoniae D39V [2], first compound 0.0035 µg/mL, partner 2 µg/mL | 0.168
S. pneumoniae D39V [2], first compound 0.0035 µg/mL, partner 4 µg/mL | 0.0436
S. pneumoniae D39V [2], first compound 0.007 µg/mL, partner 2 µg/mL | 0.0426
S. pneumoniae D39V [2], first compound 0.007 µg/mL, partner 4 µg/mL | 0.0416

Conditions | Bliss interaction score
B. subtilis 168 [6] | 0.101
S. aureus DSM 20231 | 0.0629
S. aureus Newman [4] | 0.09
S. pneumoniae D39V [5] | -0.0656

CO/N=C(\C(=O)N[C@@H]1C(=O)N2C(C(=O)O)=C(COC(C)=O)CS[C@H]12)c1csc(N)n1 [Cefotaxime] + CN(C)c1cc(NC(=O)CNC(C)(C)C)c(O)c2c1C[C@H]1C[C@H]3[C@H](N(C)C)C(O)=C(C(N)=O)C(=O)[C@@]3(O)C(O)=C1C2=O [Tigecycline]
fitness, one replicate
Conditions | partner 0.039 µg/mL | partner 0.078 µg/mL | partner 0.125 µg/mL | partner 0.156 µg/mL | partner 0.25 µg/mL | partner 0.5 µg/mL
B. subtilis 168 [3], first compound 0.00775 µg/mL | 0.83 | 0.784 | – | 0.811 | – | –
B. subtilis 168 [3], first compound 0.0155 µg/mL | 0.696 | 0.677 | – | 0.621 | – | –
B. subtilis 168 [3], first compound 0.031 µg/mL | 0.476 | 0.528 | – | 0.589 | – | –
B. subtilis 168 [3], first compound 0.0625 µg/mL | – | – | 0.623 | – | 0.513 | 0.573
B. subtilis 168 [3], first compound 0.125 µg/mL | – | – | 0.457 | – | 0.4 | 0.406
B. subtilis 168 [3], first compound 0.25 µg/mL | – | – | 0.307 | – | 0.237 | 0.252
S. aureus Newman [1], first compound 0.039 µg/mL | 0.709 | 0.781 | – | 0.776 | – | –
S. aureus Newman [1], first compound 0.625 µg/mL | 0.0125 | 0.0197 | – | 0.0212 | – | –
S. aureus Newman [1], first compound 1.25 µg/mL | 0.0613 | 0.0298 | – | 0.023 | – | –
S. aureus Newman [1], first compound 2.5 µg/mL | 0.0425 | 0.0445 | – | 0.0375 | – | –

Conditions | fitness
B. subtilis 168 [3], first compound 0.5 µg/mL, partner 0.039 µg/mL | 0.231
B. subtilis 168 [3], first compound 0.5 µg/mL, partner 0.078 µg/mL | 0.198
B. subtilis 168 [3], first compound 0.5 µg/mL, partner 0.156 µg/mL | 0.234
B. subtilis 168 [3], first compound 1 µg/mL, partner 0.039 µg/mL | 0.0778
B. subtilis 168 [3], first compound 1 µg/mL, partner 0.078 µg/mL | 0.092
B. subtilis 168 [3], first compound 1 µg/mL, partner 0.156 µg/mL | 0.109
B. subtilis 168 [3], first compound 2 µg/mL, partner 0.039 µg/mL | 0.0602
B. subtilis 168 [3], first compound 2 µg/mL, partner 0.078 µg/mL | 0.0925
B. subtilis 168 [3], first compound 2 µg/mL, partner 0.156 µg/mL | 0.101
S. aureus Newman [1], first compound 0.078 µg/mL, partner 0.039 µg/mL | 0.706
S. aureus Newman [1], first compound 0.078 µg/mL, partner 0.078 µg/mL | 0.777
S. aureus Newman [1], first compound 0.078 µg/mL, partner 0.156 µg/mL | 0.767
S. aureus Newman [1], first compound 0.156 µg/mL, partner 0.039 µg/mL | 0.655
S. aureus Newman [1], first compound 0.156 µg/mL, partner 0.078 µg/mL | 0.701
S. aureus Newman [1], first compound 0.156 µg/mL, partner 0.156 µg/mL | 0.714
S. aureus Newman [1], first compound 0.312 µg/mL, partner 0.039 µg/mL | 0.427
S. aureus Newman [1], first compound 0.312 µg/mL, partner 0.078 µg/mL | 0.434
S. aureus Newman [1], first compound 0.312 µg/mL, partner 0.156 µg/mL | 0.422
S. pneumoniae D39V [2], first compound 0.0018 µg/mL, partner 0.325 µg/mL | 0.978
S. pneumoniae D39V [2], first compound 0.0018 µg/mL, partner 0.65 µg/mL | 0.936
S. pneumoniae D39V [2], first compound 0.0018 µg/mL, partner 1.3 µg/mL | 0.993
S. pneumoniae D39V [2], first compound 0.0018 µg/mL, partner 2.6 µg/mL | 0.92
S. pneumoniae D39V [2], first compound 0.0035 µg/mL, partner 0.325 µg/mL | 0.957
S. pneumoniae D39V [2], first compound 0.0035 µg/mL, partner 0.65 µg/mL | 0.903
S. pneumoniae D39V [2], first compound 0.0035 µg/mL, partner 1.3 µg/mL | 0.954
S. pneumoniae D39V [2], first compound 0.0035 µg/mL, partner 2.6 µg/mL | 0.88
S. pneumoniae D39V [2], first compound 0.007 µg/mL, partner 0.325 µg/mL | 0.918
S. pneumoniae D39V [2], first compound 0.007 µg/mL, partner 0.65 µg/mL | 0.849
S. pneumoniae D39V [2], first compound 0.007 µg/mL, partner 1.3 µg/mL | 0.896
S. pneumoniae D39V [2], first compound 0.007 µg/mL, partner 2.6 µg/mL | 0.774

Conditions | Bliss interaction score
B. subtilis 168 [6] | 0.0544
S. aureus DSM 20231 | 0.0485
S. aureus Newman [4] | -0.0426
S. pneumoniae D39V [5] | -0.0363

CO/N=C(\C(=O)N[C@@H]1C(=O)N2C(C(=O)O)=C(COC(C)=O)CS[C@H]12)c1csc(N)n1 [Cefotaxime] + CN[C@@H]1[C@H](O[C@H]2[C@H](O[C@H]3[C@H](O)[C@@H](O)[C@H](N=C(N)N)[C@@H](O)[C@@H]3N=C(N)N)O[C@@H](C)[C@]2(O)C=O)O[C@@H](CO)[C@H](O)[C@H]1O [Streptomycin]
fitness
Conditions | partner 1 µg/mL | partner 2 µg/mL | partner 4 µg/mL | partner 8 µg/mL
B. subtilis 168 [3], first compound 0.5 µg/mL | – | 0.0795 | 0.043 | 0.0401
B. subtilis 168 [3], first compound 1 µg/mL | – | 0.0611 | 0.0445 | 0.0309
B. subtilis 168 [3], first compound 2 µg/mL | – | 0.061 | 0.048 | 0.0478
S. aureus Newman [1], first compound 0.078 µg/mL | 0.761 | 0.757 | 0.72 | –
S. aureus Newman [1], first compound 0.156 µg/mL | 0.589 | 0.589 | 0.474 | –
S. aureus Newman [1], first compound 0.312 µg/mL | 0.382 | 0.29 | 0.155 | –
S. aureus Newman [1], first compound 0.625 µg/mL | 0.114 | 0.0719 | 0.0326 | –
S. aureus Newman [1], first compound 1.25 µg/mL | 0.0262 | 0.0178 | 0.0244 | –
S. aureus Newman [1], first compound 2.5 µg/mL | 0.0379 | 0.0307 | 0.0187 | –
S. pneumoniae D39V [2], first compound 0.0018 µg/mL | – | 0.966 | 0.996 | 0.964
S. pneumoniae D39V [2], first compound 0.0035 µg/mL | – | 0.945 | 0.974 | 0.963
S. pneumoniae D39V [2], first compound 0.007 µg/mL | – | 0.787 | 0.822 | 0.846

fitness, one replicate
Conditions | first compound 0.0018 µg/mL | first compound 0.0035 µg/mL | first compound 0.007 µg/mL | first compound 0.00775 µg/mL | first compound 0.0155 µg/mL | first compound 0.031 µg/mL
B. subtilis 168 [3], partner 2 µg/mL | – | – | – | 0.784 | 0.492 | 0.414
B. subtilis 168 [3], partner 4 µg/mL | – | – | – | 0.0757 | 0.0218 | 0.0306
B. subtilis 168 [3], partner 8 µg/mL | – | – | – | 0.0214 | 0.0302 | 0.0308
S. pneumoniae D39V [2], partner 16 µg/mL | 0.92 | 0.881 | 0.654 | – | – | –

Conditions | Bliss interaction score
B. subtilis 168 [6] | -0.105
S. aureus DSM 20231 | -0.0464
S. aureus Newman [4] | -0.0376
S. pneumoniae D39V [5] | 0.0714
